Measurements published in patent publication US20180051017A1, “AGENT FOR TREATMENT OF SCHIZOPHRENIA” (Sumitomo Dainippon Pharma Co., Ltd., priority 2002, published 2018).
Structures can show the parent of a compound that is named as a salt.

System: patients with schizophrenia in the acute exacerbation phase
Assay: First stage phase II clinical trial: safety (adverse events, serious adverse events, side effects, ECG, laboratory tests)
Format: in vivo, human
Procedure: According to the procedures as shown in Table 1 as described below, the placebo-controlled double blind experiment was done on 149 patients with schizophrenia in the acute exacerbation phase at 15 facilities in USA. The efficacy and safeness were studied when SM-13496 at a dose of 40 mg or 120 mg, or a placebo was orally administered once a day for 6 weeks after placebo washout.

[1] = 40 mg orally once a day for 6 weeks, 50 subjects

## O=C1[C@@H]2[C@@H]3CC[C@@H](C3)[C@@H]2C(=O)N1C[C@@H]1CCCC[C@H]1CN1CCN(c2nsc3ccccc23)CC1 [SM-13496, (1R,2S,3R,4S)-N-[(1R,2R)-2-[4-(1,2-benzoisothiazol-3-yl)-1-piperazinyl-methyl]-1-cyclohexylmethyl]-2,3-bicyclo[2.2.1]heptanedicarboximide hydrochloride]
40 mg and 120 mg groups
  Relationship of the serious adverse events to the tested medicament: denied
40 mg or 120 mg, 6 weeks
  Body weight gain, bulimia, impotence, erectile dysfunction or convulsion: not observed
  Change in 12-lead electrocardiogram: no clinically significant change
[1]
  Number of subjects showing adverse events (%): 40 (80) number of subjects (%)
  Number of subjects showing serious adverse events (%): 3 (6) number of subjects (%)
  Number of subjects who drop out from the trial due to adverse events (%): 6 (12) number of subjects (%)
40 mg, 120 mg and placebo groups
  Ratio of the patients having an abnormal change in laboratory values among the groups: no significant difference
40 mg, 6 weeks, 50 subjects
  Occurrence of adverse event: Akathisia: 4 (8) number of subjects (%)
  Occurrence of adverse event: Digestive disturbance: 4 (8) number of subjects (%)
  Occurrence of adverse event: Drowsiness: 4 (8) number of subjects (%)
  Occurrence of adverse event: Exacerbation of schizophrenia: 2 (4) number of subjects (%)
  Occurrence of adverse event: Free-floating vertigo (excluding rotatory vertigo): 6 (12) number of subjects (%)
  Occurrence of adverse event: Headache: 8 (16) number of subjects (%)
  Occurrence of adverse event: Nausea: 5 (10) number of subjects (%)
  Occurrence of adverse event: Suppression: 9 (18) number of subjects (%)
  Occurrence of serious adverse event: Exacerbation of paranoia: 1 (2) number of subjects (%)
  Occurrence of serious adverse event: Exacerbation of schizophrenia: 1 (2) number of subjects (%)
  Occurrence of serious adverse event: Paranoid schizophrenia: 0 (0) number of subjects (%)
  Occurrence of serious adverse event: Psychosis aggravated: 1 (2) number of subjects (%)
  Occurrence of side effects (%): 33 (66) number of subjects (%)
  Serious adverse events: Total (%): 3 (6) number of subjects (%)
  Side effect: Abdominal pain (Gastroenteric disturbance): 0 (0) number of subjects (%)
  Side effect: Abnormal electrocardiogram (Laboratory assay): 0 (0) number of subjects (%)
  Side effect: Abnormal liver function tests (Laboratory assay): 0 (0) number of subjects (%)
  Side effect: Agitation (Mental disturbance): 0 (0) number of subjects (%)
  Side effect: Agitation aggravated (Mental disturbance): 0 (0) number of subjects (%)
  Side effect: Akathisia (Nervous system disorder): 4 (8) number of subjects (%)
  Side effect: Akathisia aggravated (Nervous system disorder): 1 (2) number of subjects (%)
  Side effect: Anarthria (Nervous system disorder): 0 (0) number of subjects (%)
  Side effect: Anorexia (Metabolic disturbances and nutritional disturbance): 1 (2) number of subjects (%)
  Side effect: Anxiety aggravated (Mental disturbance): 1 (2) number of subjects (%)
  Side effect: Articular rigidity (Musculoskeletal system and connective tissue disorder): 1 (2) number of subjects (%)
  Side effect: Blurred vision (Ocular disturbance): 1 (2) number of subjects (%)
  Side effect: Breathing difficulty (Disturbance in respiratory organ, chest and mediastinum): 0 (0) number of subjects (%)
  Side effect: Cervical rigidity (Musculoskeletal system and connective tissue disorder): 1 (2) number of subjects (%)
  Side effect: Cogwheel rigidity (Nervous system disorder): 0 (0) number of subjects (%)
  Side effect: Constipation (Gastroenteric disturbance): 2 (4) number of subjects (%)
  Side effect: Decrease in appetite (Metabolic disturbances and nutritional disturbance): 1 (2) number of subjects (%)
  Side effect: Diarrhea (Gastroenteric disturbance): 3 (6) number of subjects (%)
  Side effect: Drowsiness (Nervous system disorder): 4 (8) number of subjects (%)
  Side effect: Dry eye (Ocular disturbance): 0 (0) number of subjects (%)
  Side effect: Dry mouth (Gastroenteric disturbance): 0 (0) number of subjects (%)
  Side effect: Dyspepsia (Gastroenteric disturbance): 3 (6) number of subjects (%)
  Side effect: Dystonic reaction (Nervous system disorder): 1 (2) number of subjects (%)
  Side effect: Exacerbation of insomnia (Mental disturbance): 0 (0) number of subjects (%)
  Side effect: External otitis (Infection and parasitosis): 1 (2) number of subjects (%)
  Side effect: Extrapyramidal disease (Nervous system disorder): 1 (2) number of subjects (%)
  Side effect: Fatigue (Total disability and local condition): 3 (6) number of subjects (%)
  Side effect: Fatigue aggravated (Total disability and local condition): 1 (2) number of subjects (%)
  Side effect: Flatulence (Gastroenteric disturbance): 1 (2) number of subjects (%)
  Side effect: Flushing (Vascular diseases): 0 (0) number of subjects (%)
  Side effect: Free-floating vertigo (excluding rotatory vertigo) (Nervous system disorder): 5 (10) number of subjects (%)
  Side effect: Frequent urination (Renal Injury and urinary disorder): 0 (0) number of subjects (%)
  Side effect: Glossoplegia (Nervous system disorder): 0 (0) number of subjects (%)
  Side effect: Headache (Nervous system disorder): 6 (12) number of subjects (%)
  Side effect: Heavy feeling (Musculoskeletal system and connective tissue disorder): 1 (2) number of subjects (%)
  Side effect: Hot flashes (Vascular diseases): 0 (0) number of subjects (%)
  Side effect: Hot sensation (Total disability and local condition): 0 (0) number of subjects (%)
  Side effect: Increase in creatine phosphokinase level in the blood (Laboratory assay): 1 (2) number of subjects (%)
  Side effect: Increase in prolactin level in the blood (Laboratory assay): 1 (2) number of subjects (%)
  Side effect: Increase in total protein (Laboratory assay): 1 (2) number of subjects (%)
  Side effect: Insomnia (Mental disturbance): 1 (2) number of subjects (%)
  Side effect: Laryngopharynx pain (Disturbance in respiratory organ, chest and mediastinum): 1 (2) number of subjects (%)
  Side effect: Loose stools (Gastroenteric disturbance): 0 (0) number of subjects (%)
  Side effect: Melalgia (Musculoskeletal system and connective tissue disorder): 0 (0) number of subjects (%)
  Side effect: Muscle stiffness (Musculoskeletal system and connective tissue disorder): 2 (4) number of subjects (%)
  Side effect: Myalgic pain (Musculoskeletal system and connective tissue disorder): 0 (0) number of subjects (%)
  Side effect: Nausea (Gastroenteric disturbance): 4 (8) number of subjects (%)
  Side effect: Nightmare (Mental disturbance): 0 (0) number of subjects (%)
  Side effect: Palpitation (Heart problems): 0 (0) number of subjects (%)
  Side effect: Parotiditis (Infection and parasitosis): 0 (0) number of subjects (%)
  Side effect: Polyuria (Renal Injury and urinary disorder): 0 (0) number of subjects (%)
  Side effect: Pruritus (Disturbance in Skin and Hypodermis): 0 (0) number of subjects (%)
  Side effect: Psychosis aggravated (Mental disturbance): 0 (0) number of subjects (%)
  Side effect: Restlessness (Mental disturbance): 1 (2) number of subjects (%)
  Side effect: Salivary hypersecretion (Gastroenteric disturbance): 0 (0) number of subjects (%)
  Side effect: Sinus tachycardia (Heart problems): 0 (0) number of subjects (%)
  Side effect: Sleepiness (Total disability and local condition): 1 (2) number of subjects (%)
  Side effect: Suppression (Nervous system disorder): 9 (18) number of subjects (%)
  Side effect: Tinea pedis (Infection and parasitosis): 0 (0) number of subjects (%)
  Side effect: Tongue disturbance (Gastroenteric disturbance): 1 (2) number of subjects (%)
  Side effect: Tremor (Nervous system disorder): 3 (6) number of subjects (%)
  Side effect: Trismus (Nervous system disorder): 0 (0) number of subjects (%)
  Side effect: Urinary tract infection (Infection and parasitosis): 1 (2) number of subjects (%)
  Side effect: Vomiting (Gastroenteric disturbance): 2 (4) number of subjects (%)
  Side effect: Weight loss (Laboratory assay): 1 (2) number of subjects (%)
40 mg-treated group
  Akathisia (adverse event): 8%
  Exacerbation of schizophrenia (adverse event): 4%
  Ratio of the subjects showing suppression: 18%
  Serious adverse events: 3 cases
120 mg orally once a day for 6 weeks, 49 subjects
  Number of subjects showing adverse events (%): 38 (78) number of subjects (%)
